Data as given in the NIST ThermoML archive (doi:10.1021/je030133a).
Where “and” joins values, the source holds several entries; their conditions need not be identical. Equal values may be shown once.

Assays:
[1] = 101.3 kPa, Liquid
[2] = xn = mol fraction of the nth substance listed; details: 101.3 kPa, Liquid

C1COCCO1 [1,4-dioxane]
[1]
Details | mass density [kg/m3] | viscosity
303.15 K | 1022.3 | 1.099 mPa·s and 1.098 mPa·s
308.15 K | 1016.7 | 1.03 mPa·s
313.15 K | 1012 | 0.9575 mPa·s

C1COCCO1 [1,4-dioxane] + CCCCO
[2]
Details | mass density, 303.15 K [kg/m3] | mass density, 308.15 K [kg/m3] | mass density, 313.15 K [kg/m3] | viscosity, 303.15 K [mPa·s] | viscosity, 308.15 K [mPa·s] | viscosity, 313.15 K [mPa·s]
x1 = 0.1066 | 826.5 | 818.4 | 816.8 | 2.011 | 1.683 | 1.522
x1 = 0.2116 | 847.6 | 839.9 | 837.9 | 1.635 | 1.362 | 1.281
x1 = 0.3151 | 868.6 | 861.3 | 859 | 1.37 | 1.165 | 1.094
x1 = 0.4171 | 889.9 | 882.7 | 880.2 | 1.243 | 1.081 | 0.9963
x1 = 0.5177 | 911.3 | 904.3 | 901.5 | 1.164 | 1.032 | 0.9565
x1 = 0.6169 | 932.8 | 926.2 | 923.1 | 1.093 | 1.007 | 0.9426
x1 = 0.6659 | 943.6 | 937.3 | 934 | 1.064 | 0.9903 | 0.9289
x1 = 0.7146 | 954.6 | 948.4 | 945.2 | 1.038 | 0.9768 | 0.919
x1 = 0.763 | 965.6 | 959.6 | 956.3 | 1.016 | 0.9543 | 0.9043
x1 = 0.8111 | 976.7 | 971 | 967.4 | 1.015 | 0.9484 | 0.9234
x1 = 0.8588 | 987.9 | 982.3 | 978.6 | 1.031 | 0.9507 | 0.9384
x1 = 0.9062 | 999.2 | 993.6 | 989.7 | 1.065 | 0.9793 | 0.9315
x1 = 1 | 1022.3 | 1016.7 | 1012 | 1.098 | 1.03 | 0.9575

CCCCO [butan-1-ol]
[1]
Details | mass density [kg/m3] | viscosity
303.15 K | 805.7 | 2.282 mPa·s
308.15 K | 797.2 | 1.907 mPa·s and 1.895 mPa·s
313.15 K | 795.5 | 1.681 mPa·s

ClC(Cl)(Cl)Cl [tetrachloromethane]
[1]
Details | mass density | viscosity
303.15 K | 1580.6 kg/m3 | 0.8689 mPa·s
308.15 K | 1575.7 kg/m3 | 0.8307 mPa·s
313.15 K | 1570.9 kg/m3 and 1571.3 kg/m3 | 0.807 mPa·s and 0.8072 mPa·s

CCCCO [butan-1-ol] + ClC(Cl)(Cl)Cl
[2], x2 = 0
Details | mass density [kg/m3] | viscosity [mPa·s]
303.15 K | 805.7 | 2.282
308.15 K | 797.2 | 1.907
313.15 K | 795.5 | 1.681

CCCCO [butan-1-ol] + C1COCCO1
[2], x2 = 0
Details | mass density [kg/m3] | viscosity [mPa·s]
303.15 K | 805.7 | 2.282
308.15 K | 797.2 | 1.895
313.15 K | 795.5 | 1.681

C1COCCO1 [1,4-dioxane] + ClC(Cl)(Cl)Cl
[2], x1 = 1
Details | mass density [kg/m3] | viscosity [mPa·s]
303.15 K | 1022.3 | 1.099
308.15 K | 1016.7 | 1.03
313.15 K | 1012 | 0.9575

ClC(Cl)(Cl)Cl [tetrachloromethane] + CCCCO
[2]
Details | mass density, 303.15 K [kg/m3] | mass density, 308.15 K [kg/m3] | mass density, 313.15 K [kg/m3] | viscosity, 303.15 K [mPa·s] | viscosity, 308.15 K [mPa·s] | viscosity, 313.15 K [mPa·s]
x1 = 0.0954 | 885 | 876 | 873.9 | 2.028 | 1.698 | 1.498
x1 = 0.1918 | 964.8 | 955.5 | 953 | 1.708 | 1.444 | 1.293
x1 = 0.2891 | 1044.5 | 1034.7 | 1031.7 | 1.496 | 1.276 | 1.172
x1 = 0.3875 | 1123.5 | 1113.8 | 1110.1 | 1.356 | 1.157 | 1.069
x1 = 0.4869 | 1201.2 | 1191.8 | 1187.6 | 1.248 | 1.096 | 1.038
x1 = 0.5874 | 1277.3 | 1268.5 | 1264.2 | 1.157 | 1.052 | 0.9981
x1 = 0.6889 | 1352.2 | 1344.8 | 1340.9 | 1.069 | 1.004 | 0.9502
x1 = 0.7401 | 1389.9 | 1382.7 | 1378.8 | 1.025 | 0.9705 | 0.9211
x1 = 0.7915 | 1427.1 | 1420.2 | 1415.9 | 1.005 | 0.9552 | 0.8947
x1 = 0.8432 | 1463.6 | 1457.8 | 1454.2 | 0.9778 | 0.9211 | 0.8727
x1 = 0.8952 | 1501.2 | 1495.7 | 1491.8 | 0.9554 | 0.8975 | 0.8612
x1 = 0.9475 | 1538.9 | 1534.3 | 1530.5 | 0.9164 | 0.8787 | 0.8346
x1 = 1 | 1580.6 | 1575.7 | 1571.3 | 0.8689 | 0.8307 | 0.8072

ClC(Cl)(Cl)Cl [tetrachloromethane] + C1COCCO1
[2]
Details | mass density, 303.15 K [kg/m3] | mass density, 308.15 K [kg/m3] | mass density, 313.15 K [kg/m3] | viscosity, 303.15 K [mPa·s] | viscosity, 308.15 K [mPa·s] | viscosity, 313.15 K [mPa·s]
x2 = 0 | 1580.6 | 1575.7 | 1570.9 | 0.8689 | 0.8307 | 0.807
x2 = 0.1116 | 1520.6 | 1517.3 | 1513.2 | 0.945 | 0.8954 | 0.8454
x2 = 0.2204 | 1462.3 | 1458.6 | 1455.1 | 0.9938 | 0.9391 | 0.8848
x2 = 0.3265 | 1405.3 | 1401.1 | 1396.9 | 1.036 | 0.9771 | 0.9244
x2 = 0.4299 | 1349 | 1344.8 | 1340.9 | 1.073 | 1.01 | 0.9531
x2 = 0.5307 | 1294.3 | 1290.5 | 1286.9 | 1.11 | 1.044 | 0.9892
x2 = 0.6291 | 1240.9 | 1236.2 | 1232.5 | 1.136 | 1.066 | 1.008
x2 = 0.7252 | 1187.4 | 1182.4 | 1177.9 | 1.145 | 1.066 | 0.9996
x2 = 0.7724 | 1161.1 | 1155.9 | 1150.9 | 1.145 | 1.063 | 0.9971
x2 = 0.819 | 1134.4 | 1128.5 | 1123.2 | 1.139 | 1.058 | 0.9881
x2 = 0.865 | 1107.7 | 1101.6 | 1096 | 1.131 | 1.052 | 0.9836
x2 = 0.9105 | 1081 | 1074.7 | 1069.2 | 1.123 | 1.05 | 0.9785
x2 = 0.9555 | 1052.6 | 1046.5 | 1041.2 | 1.117 | 1.046 | 0.9667
